# Reference: ChEMBL document CHEMBL1201862, “PubChem BioAssay data set” (2004)
#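 48-hour exposure; five concentrations; linearly interpolated endpoints. GI50 is the concentration that inhibits growth by half.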 The source made the active and inactive calls. Cut-off read from the data, not from the text of the source: active = GI50 up to about 1.1 µM and inactive = higher.
# Assays:
# Assay in all cases: NCI anticancer screen, dose series, 48 h
# 786-0 = test system: 786-0
# A549 = test system: A549
# ACHN = test system: ACHN
# CAKI-1 = test system: CAKI-1
# CCRF-CEM = test system: CCRF-CEM
# COLO 205 = test system: COLO 205
# DLD-1 = test system: DLD-1
# DMS-114 = test system: DMS-114
# DMS-273 = test system: DMS-273
# EKVX = test system: EKVX
# HCC 2998 = test system: HCC 2998
# HCT-116 = test system: HCT-116
# HCT-15 = test system: HCT-15
# HL-60 = test system: HL-60
# HOP-62 = test system: HOP-62
# HOP-92 = test system: HOP-92
# HT-29 = test system: HT-29
# IGROV-1 = test system: IGROV-1
# K562 = test system: K562
# KM-20L2 = test system: KM-20L2
# KM12 = test system: KM12
# LOX IMVI = test system: LOX IMVI
# LXFL 529 = test system: LXFL 529
# M14 = test system: M14
# M19-MEL = test system: M19-MEL
# MOLT-4 = test system: MOLT-4
# Malme-3M = test system: Malme-3M
# NCI-H226 = test system: NCI-H226
# NCI-H23 = test system: NCI-H23
# NCI-H460 = test system: NCI-H460
# NCI-H522 = test system: NCI-H522
# OVCAR-3 = test system: OVCAR-3
# OVCAR-4 = test system: OVCAR-4
# OVCAR-5 = test system: OVCAR-5
# OVCAR-8 = test system: OVCAR-8
# RPMI-8226 = test system: RPMI-8226
# RXF 393 = test system: RXF 393
# SF-268 = test system: SF-268
# SF-295 = test system: SF-295
# SF-539 = test system: SF-539
# SK-MEL-28 = test system: SK-MEL-28
# SK-MEL-2 = test system: SK-MEL-2
# SK-MEL-5 = test system: SK-MEL-5
# SK-OV-3 = test system: SK-OV-3
# SN12C = test system: SN12C
# SNB-19 = test system: SNB-19
# SNB-75 = test system: SNB-75
# SNB-78 = test system: SNB-78
# SR = test system: SR
# SW-620 = test system: SW-620
# TK-10 = test system: TK-10
# U-251 = test system: U-251
# UACC-257 = test system: UACC-257
# UACC-62 = test system: UACC-62
# UO-31 = test system: UO-31
# XF498 = test system: XF498
structure (smiles),measurement,setting,value
CCOC1=C2N=C(C(CC)c3ccc(F)cc3)N=C2C(=O)c2ccccc21 (stereo unspecified),GI50,786-0,29.9 µM (inactive)
same,GI50,A549,22.1 µM (inactive)
same,GI50,ACHN,19.1 µM (inactive)
same,GI50,CAKI-1,22 µM (inactive)
same,GI50,CCRF-CEM,40 µM (inactive)
same,GI50,COLO 205,22.3 µM (inactive)
same,GI50,DLD-1,7.55 µM (inactive)
same,GI50,DMS-114,22.4 µM (inactive)
same,GI50,DMS-273,25.6 µM (inactive)
same,GI50,EKVX,26.9 µM (inactive)
same,GI50,HCC 2998,29.9 µM (inactive)
same,GI50,HCT-116,23.9 µM (inactive)
same,GI50,HCT-15,18.6 µM
same,GI50,HL-60,35.3 µM (inactive)
same,GI50,HOP-62,46.3 µM (inactive)
same,GI50,HOP-92,17.7 µM (inactive)
same,GI50,HT-29,19.2 µM (inactive)
same,GI50,IGROV-1,23.5 µM (inactive)
same,GI50,K562,20.6 µM (inactive)
same,GI50,KM-20L2,19 µM (inactive)
same,GI50,KM12,21.9 µM (inactive)
same,GI50,LOX IMVI,16.2 µM (inactive)
same,GI50,LXFL 529,23.9 µM (inactive)
same,GI50,M14,26 µM (inactive)
same,GI50,M19-MEL,24 µM (inactive)
same,GI50,MOLT-4,18 µM (inactive)
same,GI50,Malme-3M,23.3 µM (inactive)
same,GI50,NCI-H226,16 µM (inactive)
same,GI50,NCI-H23,25.3 µM (inactive)
same,GI50,NCI-H460,26.5 µM (inactive)
same,GI50,NCI-H522,22.3 µM (inactive)
same,GI50,OVCAR-3,32.9 µM (inactive)
same,GI50,OVCAR-4,19.7 µM (inactive)
same,GI50,OVCAR-5,26.6 µM (inactive)
same,GI50,OVCAR-8,30.5 µM (inactive)
same,GI50,RPMI-8226,23.8 µM (inactive)
same,GI50,RXF 393,11.6 µM (inactive)
same,GI50,SF-268,19.7 µM (inactive)
same,GI50,SF-295,21 µM (inactive)
same,GI50,SF-539,16.3 µM (inactive)
same,GI50,SK-MEL-28,36.5 µM (inactive)
same,GI50,SK-MEL-2,18.7 µM (inactive)
same,GI50,SK-MEL-5,13.9 µM (inactive)
same,GI50,SK-OV-3,32.1 µM (inactive)
same,GI50,SN12C,16.3 µM (inactive)
same,GI50,SNB-19,51.4 µM (inactive)
same,GI50,SNB-75,21 µM (inactive)
same,GI50,SNB-78,27.8 µM (inactive)
same,GI50,SR,21.3 µM (inactive)
same,GI50,SW-620,36.4 µM (inactive)
same,GI50,TK-10,22 µM (inactive)
same,GI50,U-251,21.7 µM (inactive)
same,GI50,UACC-257,20.2 µM (inactive)
same,GI50,UACC-62,10.9 µM (inactive)
same,GI50,UO-31,13.2 µM (inactive)
same,GI50,XF498,17.5 µM (inactive)
